Active and inactive are the calls of the source. The calls are words filed in the database; no cut-off is given here.
What follows are compounds tested on Mus musculus (assay: Antidepressant activity in Mus musculus (mouse) assessed as reduction of immobility time at 10 mg/kg after 1 hr measured for 5 min by forced swim test).
Type: functional

SMILES | inhibition in vivo at 10 mg/kg [%] | inhibition
CCOC(=O)Nc1ccccc1 [ETHYL PHENYLCARBAMATE] | 21.6 | –
CCCCCCCOC(=O)Nc1ccccc1 | 32.5 | –
CCN(CC)C(=O)Nc1c(C)cccc1C | – | inactive
CCN(CC)C(=O)Nc1ccccc1C(=O)O | 3.52 | –
CCN(CC)C(=O)Nc1ccc(Cl)cc1 | 7.04 | –
O=C(Nc1ccccc1)N1CCN(c2ccccc2)CC1 | 27.7 | –
CCN(CC)C(=O)Nc1ccc(C(=O)O)cc1 | 16.7 | –
CCNC(=S)N1CCN(c2ccccc2)CC1 | – | inactive
NNCCc1ccccc1 [PHENELZINE] | 15.9 | –

Source: ChEMBL document CHEMBL3046387, “Antidepressant activity of carbamates and urea derivatives” (Med Chem Res, 2012)
